These are literature values, as cited in US9585959B2, “Robust controlled-release formulations” (CAMURUS AB, priority 2011, dated 2017).

*1 amine or outer side, *2 acyl side, *3 side chain or, on linkers, in order; H or OH if unused. Where a SMILES comes first, the peptide text is derived from it. Side-chain parts run from the residue outwards. [ ]: non-standard residue; d: D form. The star is where a group is joined. Ethylenediamine = C(CN[*:2])N[*:1]; Hyp = O=C(O)[C@@H]1C[C@@H](O)CN1; Phg = N[C@H](C(=O)O)c1ccccc1; CO = O=C([*:1])[*:2]; Bn = c1ccc(C*)cc1

The test system of data set [1] is somatostatin receptor subtypes sstr1,2,3 and sstr5.
For data set [2] the following is noted: in vivo.

In the case of `C[C@@H](O)[C@@H]1NC(=O)[C@H](CCCCN)NC(=O)[C@@H](Cc2c[nH]c3ccccc23)NC(=O)[C@H](Cc2ccccc2)NC(=O)[C@@H](NC(=O)[C@H](N)Cc2ccccc2)CSSC[C@@H](C(=O)N[C@H](CO)[C@@H](C)O)NC1=O` [Octreotide, D-Phe-Cys-Phe-D-Trp-Lys-Thr-Cys-Thr-ol (2-7 disulphide bridge)], the Selectivity entry in the data set on SSTRs (SSTR1-SSTR5) (for SSTR2 and SSTR5) is recorded as “high selectivity”.
In the case of `NCCCC[C@@H]1NC(=O)[C@@H](Cc2c[nH]c3ccccc23)NC(=O)[C@H](c2ccccc2)NC(=O)[C@@H]2C[C@@H](OC(=O)NCCN)CN2C(=O)[C@H](Cc2ccccc2)NC(=O)[C@H](Cc2ccc(OCc3ccccc3)cc2)NC1=O` [Pasireotide] (cyclo(F[Hyp]([CO-Ethylenediamine])[Phg][dW]KY(Bn))), the Affinity result in data set [1] is given as “high affinity”.
Take “Ala-Gly-Cys-Lys-Asn-Phe-Phe-Trp-Lys-Thr-Phe-Thr-Ser-Cys [SST-14]”: the Biological half-life in data set [2] is 1-3 minutes. The “Affinity of the five SSTRs” value in the data set on SSTRs (SSTR1-SSTR5) (SSTR1-SSTR5) is on record as “equally high affinity”.
